Laboratory results reported in patent US11414379B2, “SPAK kinase inhibitors as neuroprotective agents” (United States Government as represented by the Department …, priority 2018, dated 2022).

Experiments:
[1] = system: SPAK Ser373, NKCC1 Thr203/207/212 and KCCs phosphorylation; experiment: Phosphorylation immunoblot in HEK293 cells; assay type: cell-based, human
Description: HEK293 (human embryonic kidney 293) cells were cultured on 10-cm-diameter dishes in DMEM supplemented with 10% (v/v) foetal bovine serum, 2 mM L-glutamine, 100 U/ml penicillin and 0.1 mg/ml streptomycin. HEK293 cells were transfected with a mixture of 20 μl of 1 mg/ml polyethylenimine (Polysciences) and 5-10 μg of plasmid DNA as described previously (Durocher et al., 2002). 36 hours post-transfection cells were stimulated with either control isotonic or hypotonic medium for a period of 30 minutes. Cells were lysed in 0.3 mL of ice-cold lysis buffer/dish, lysates were clarified by centrifugation at 4° C. for 15 minutes at 26,000 g and the supernatant aliquots were frozen in liquid nitrogen and stored at −20° C. Protein concentrations were determined using the Bradford method. Cells were treated with the indicated concentrations of the SPAK/OSR1 inhibitors. […] Hypotonic low chloride buffer was 67.5 mM sodium-gluconate, 2.5 mM potassium-gluconate, 0.25 mM CaCl2), 0.25 mM MgCl2, 0.5 mM Na2HPO4, 0.5 mM Na2SO4 and 7.5 mM HEPES (pH 7.5).
The membranes were incubated for 30 min with TBST (Tris-buffered saline, 0.05% Tween-20) containing 5% (w/v) skim milk. […] After repeating the washing steps, signals were detected with enhanced chemiluminescence reagent. […] The densities of bands were measured with ImageJ. […]

[2] = system: mouse model of ischemic stroke; experiment: Ex vivo MRI (T2WI, DTI) 7 days post-stroke; assay type: in vivo; details: p>0.05
Description: For ex-vivo MRI, brains were maintained within the skull to avoid anatomical deformation. After overnight post-fixation in 4% PFA, heads were stored in PBS solution at 4° C. […] was performed at 500 MHz using a Bruker AV3HD 11.7 T/89 mm vertical bore small animal MRI scanner, equipped with a 25-mm quadrature RF coil and Paravision 6.0 (Bruker Biospin, Billerica, Mass.).
In a blinded manner, region of interests (ROIs) were manually drawn for the ipsilateral (IL) and contralateral (CL) cortex, striatum, corpus callosum (CC), and external capsule (EC). Values for the fractional anisotropy (FA), […] diffusion coefficient (ADC), and diffusivity were calculated for the entire volume of each ROI.
Referring to FIG. 15A, representative T2WI images and quantitative analyses of lesion volume and atrophy (shrinkage) of ex vivo brains from vehicle (Veh) control and ZT-1a-treated mice at 7 days post-MCAO are shown. […]
Referring to FIG. 15B, representative images of directionally encoded color (DEC) and fractional anisotropy (FA) maps are shown. […] Bar graphs display quantitation of mean values of FA, mean diffusivity (MD), axial diffusivity (AD) and radial diffusivity (RD) of white matter tissues (CC or EC) of ex vivo brain from vehicle control (Veh) and ZT-1a-treated mice at 7 days post-MCAO. […]

[3] = system: mouse model of ischemic stroke; experiment: Neurological function tests after tMCAO; assay type: in vivo; details: 5.0 mg/kg
Description: The scores were: 0, no observable deficit; 1, forelimb flexion; 2, forelimb flexion and decreased resistance to lateral push; 3, forelimb flexion, decreased resistance to lateral push, and unilateral circling; 4, forelimb flexion and partial or complete lack of ambulation.
In brief, the corner test apparatus consists of two cardboards (30×20×1 cm each) placed together at a 30° angle to form a narrow alley. The mouse was placed between the two angled boards facing the corner. When exiting the corner, uninjured mice turned left or right randomly. […] The numbers of left and right turns of each mouse during 10 trials were recorded, and turning movements that were not part of a rearing movement were not scored. Preoperative training was carried twice per day for three days prior to operation. Postoperatively, animals were tested on day 1, 3, 5, and 7.
In brief, two small pieces of adhesive tape (4 mm×3 mm) were attached to the forepaws in an alternating sequence and with equal pressure by the experimenter before each trial. Animals were released into a testing cage, and the time of contact and removal of the adhesive patch were recorded. Contact was recorded when either shaking of the paw or mouth contact occurred. The trial ended after the adhesive patch was removed or after 2 min had elapsed. Preoperative training was carried twice per day for three days prior to operation. Postoperatively, animals were tested on day 1, 3, 5, and 7.
Referring to FIG. 13, neurological deficit scores, corner tests, and adhesive tape contact and adhesive tape removal tests of mice treated with vehicle or ZT-1a 1 day before tMCAO (˜1) and at days 0, 1, 3, 5, and 7 post-tMCAO are shown. Vehicle (DMSO, 2 ml/kg) or ZT-1a (5.0 mg/kg) were administered as described in B. Data are means±SEM, n=6 for each group (male 3, female 3). * p<0.05 vs. vehicle.

Cc1cc(C(C#N)c2ccc(Cl)cc2)c(Cl)cc1NC(=O)c1cc(Cl)ccc1O (stereo not drawn) [ZT-1a, 5-chloro-N-(5-chloro-4-((4-chlorophenyl)(cyano)methyl)-2-methylphenyl)-2-hydroxy-benzamide]
concentration inhibiting phosphorylation of SPAK Ser373, NKCC1 Thr203/207/212 and KCCs [1]: 3 µM | effect on SPAK/OSR1 Ser373/Ser325 and NKCC1 Thr203/Thr207/Thr212 phosphorylation ([1]; dose-dependent (1-10), hypotonic low Cl- and isotonic conditions): markedly inhibited | EC tract FA values in the IL hemisphere [2]: did not change | corner test ([3]; days 1-7 post-stroke): reduced unidirectional turn preference and absence of asymmetries by day 7 post-stroke | adhesive removal test ([3]; vs vehicle, p<0.05): significantly improved motor function | adhesive contact test ([3]; vs vehicle, p=0.10): trend to faster contact response
